Experimental data as given in BindingDB's records for patent US20250163072 (Hoffmann-La Roche, 2025).

These compounds were tested against GTPase KRas [G12C]/Serine/threonine-protein kinase B-raf (Human, UniProt P01116+P15056, G12C) (assay: KRAS G12C-BRAF NanoBit Assay).
Protocol: HEK293 cells were grown and maintained using DMEM medium (Thermo Fisher Scientific) with 10% fetal bovine serum and 1% penicillin/streptomycin. Both KRAS G12C and BRAF RBD were cloned into the NanoBit vectors ([…] vectors system, Promega) with the orientations SmBit-KRAS G12C and BRAF RBD-LgBit, respectively, and co-transfected into HEK293 cells. Cells were then selected with 100 μg/mL Hygromycin B (10687010, Thermo Fisher) and Blasticidin (5 μg/mL) for 4 weeks to get the stable cell pool. On the day of the assay, 75 nL of compound solution was presented in a 384-well assay plate as a 16-point 3-fold dilution starting from a final concentration of 30 μM in DMSO. Then cells were seeded at 10,000 cells/25 μL/well in a 384-well plate. After 3 hours of incubation, 6 μL of volume of Nano-Glo Live Cell Substrate (Promega) was added into each well. Monitor luminescence using ultra384 model in Envision at 20 minutes. Compounds that facilitate disruption of the KRAS G12C-BRAF RBD complex were identified as those eliciting a decrease of luminescence relative to DMSO control wells.

Chain of GTPase KRas [G12C]/Serine/threonine-protein kinase B-raf (P01116 whole entry G12C): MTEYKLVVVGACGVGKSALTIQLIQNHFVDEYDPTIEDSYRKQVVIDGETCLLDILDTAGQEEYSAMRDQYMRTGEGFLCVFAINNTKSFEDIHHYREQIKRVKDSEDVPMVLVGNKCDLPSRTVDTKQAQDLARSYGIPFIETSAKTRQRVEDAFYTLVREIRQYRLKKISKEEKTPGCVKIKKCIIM
Chain of GTPase KRas [G12C]/Serine/threonine-protein kinase B-raf (P15056 2-766 limits assumed): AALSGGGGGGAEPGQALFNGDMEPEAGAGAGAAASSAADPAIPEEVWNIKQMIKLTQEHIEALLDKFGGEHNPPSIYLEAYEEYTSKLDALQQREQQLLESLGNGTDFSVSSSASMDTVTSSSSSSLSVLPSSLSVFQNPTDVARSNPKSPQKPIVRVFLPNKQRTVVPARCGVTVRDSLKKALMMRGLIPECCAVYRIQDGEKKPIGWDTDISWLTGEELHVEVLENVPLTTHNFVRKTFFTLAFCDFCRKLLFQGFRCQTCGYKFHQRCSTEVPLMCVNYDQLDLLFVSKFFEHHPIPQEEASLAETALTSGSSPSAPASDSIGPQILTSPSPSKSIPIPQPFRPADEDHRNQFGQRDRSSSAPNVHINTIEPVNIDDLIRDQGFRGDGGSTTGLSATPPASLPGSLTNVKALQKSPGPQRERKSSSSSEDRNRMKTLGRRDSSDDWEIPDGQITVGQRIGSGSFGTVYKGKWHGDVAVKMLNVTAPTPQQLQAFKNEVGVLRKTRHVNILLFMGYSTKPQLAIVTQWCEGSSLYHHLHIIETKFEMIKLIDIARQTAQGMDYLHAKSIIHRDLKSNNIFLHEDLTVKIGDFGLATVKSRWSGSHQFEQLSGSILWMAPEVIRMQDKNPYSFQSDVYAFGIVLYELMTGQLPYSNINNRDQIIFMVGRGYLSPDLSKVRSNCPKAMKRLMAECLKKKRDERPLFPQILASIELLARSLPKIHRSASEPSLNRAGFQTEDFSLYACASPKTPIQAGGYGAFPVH

SMILES | IC50
CCn1c(-c2cccnc2[C@H](C)OC)c2c3cc(ccc31)-c1cc(O)cc(c1)C[C@H](NC(=O)[C@H](C(C)C)N(C)C(=O)C1CCN(C(=O)C#CCN3CCOCC3)C1)C(=O)N1CCC[C@H](N1)C(=O)OCC(C)(C)C2 (stereo partly drawn) [US20250163072, Example RM018] | 268 nM
CC(C)[C@@H](C(=O)N[C@H]1Cc2cc(O)cc(c2)-c2ccc3c(C(C)(C)C#N)cn(c3c2)CC(C)(C)COC(=O)[C@@H]2CCCN(N2)C1=O)N1CCCC2(CCN(C(=O)CCl)C2)C1=O (stereo partly drawn) [US20250163072, Example RM351] | 1780 nM
CCn1c(-c2cccnc2[C@H](C)OC)c2c3cc(ccc31)-c1cc(O)cc(c1)C[C@H](NC(=O)[C@H](C(C)C)N(C)C(=O)C1CN(C(=O)CCl)C1)C(=O)N1CCC[C@H](N1)C(=O)OCC(C)(C)C2 [US20250163072, Example RM461] | 440 nM
